Measured values published in patent US8673908B2, “Kynurenine production inhibitor” (Kyowa Hakko Kirin Co., Ltd., priority 2008, dated 2014).

system: kynurenine production in IFN-γ-treated KATO-III cells; experiment: Inhibitory activity on kynurenine production (Test Example 1); assay type: cell-based; conditions: Homo sapiens, IFN-γ treatment, culture for 96 hours, read-out: IC50 value, inhibition of kynurenine production
Experimental: This assay was performed according to a method modified from the method described in the Journal of Biological Chemistry (J. Biol. Chem.), vol. 263, pp. 2041-2048 (1988). Culture of KATO-III derived from human gastric cancer cells was performed by use of RPMI 1640 (GIBCO, 11875) supplemented with 10 vol % FBS (GIBCO, 10091-148, lot. 665285). 1 μL of a DMSO solution of the test substance was diluted with 199 μL of the culture medium, and the diluted solution was added to wells of a 384 well plate (10 μL/well). Then, IFN-γ (Sigma, 1-3265) was added to the culture medium so that the concentration of IFN-γ was 31.25 ng/mL, and the KATO-III cells were suspended at 50,000 cells/ml, in the culture medium. 40 μL of the suspension was added to each well (2,000 cells/well), and culture of the KATO-III cells was performed at 37° C. under a 5% CO2 atmosphere for 96 hours. The final concentration of DMSO was limited to 0.1 vol % or less so that DMSO itself might not affect the kynurenine concentration measured by this assay. After the culture, 10 μL of a 30 w/v % aqueous trichloroacetic acid solution was added to each well, and incubation was performed at 65° C. for 30 minutes. The plate was centrifuged at 2,500×g for 5 minutes, and then 15 μL of the supernatant in each well was transferred into another 384 well plate. To each of the transferred supernatants, 15 μL of a 2 w/v % solution of p-dimethylaminobenzaldehyde in acetic acid was added, incubation was performed at 65° C. for 20 minutes, and then the absorbance at 480 nm was measured.
[formula] Sample: the absorbance value of the well to which a DMSO solution containing the test substance was added and in which cells were treated with IFN-γ. Blank: the absorbance value of the well to which only DMSO, not the test substance was added and in which cells were treated with IFN-γ. Control: the absorbance value of the well to which only DMSO, not the test substance was added and in which cells were not treated with IFN-γ.
In this assay, expression of IDO in KATO-III cells is induced by IFN-γ treatment and then kynurenine in the culture medium is quantified. It is known that the kynurenine concentration in a culture medium increases in proportion to the enzymatic activity of intracellular IDO (for example, the Journal of Biological Chemistry (J. Biol. Chem.), vol. 263, pp. 2041-2048 (1988)). […] It is known that kynurenine production is inhibited by IDO inhibitors (for example, the Journal of Clinical Investigation (J. Clin. Invest.), vol. 117, No. 5, pp. 1147-1154 […]), and thus it is expected that Compound (I) also has an inhibitory effect on IDO.

Row | IC50 [µM] | SMILES
1 | 1 to 10 | O=S(=O)(Nc1nc2ccccc2nc1OCc1ccccc1)c1cccc(Cl)c1Cl [Compound 32, 2,3-dichloro-N-(3-benzyloxyquinoxalin-2-yl)benzenesulfonamide]
2 | < 1 | O=S(=O)(Nc1nc2ccccc2nc1OC(c1ccc(C(F)(F)F)cc1)C(F)(F)F)c1ccccc1C(F)(F)F (stereo not drawn) [Compound 35, 2-(trifluoromethyl)-N-{3-[2,2,2-trifluoro-1-(4-trifluoromethylphenyl)ethoxy]quinoxalin-2-yl}benzenesulfonamide]
3 | < 1 | CC(C)(C)C(Oc1nc2ccccc2nc1NS(=O)(=O)c1cccc(Cl)c1Cl)c1cccnc1 (stereo not drawn) [Compound 37, 2,3-dichloro-N-{3-[2,2-dimethyl-1-(pyridin-3-yl)propoxy]-quinoxalin-2-yl}benzenesulfonamide]
4 | < 1 | CC(C)(F)C(Oc1nc2ccccc2nc1NS(=O)(=O)c1cccc(Cl)c1Cl)c1cccnc1 (stereo not drawn) [Compound 39, 2,3-dichloro-N-{3-[2-fluoro-2-methyl-1-(pyridin-3-yl)-propoxy]quinoxalin-2-yl}benzenesulfonamide]
5 | < 1 | COc1ccc(C(Oc2nc3ccccc3nc2NS(=O)(=O)c2ccccc2Cl)C(F)(F)F)cc1 (stereo not drawn) [Compound 40, 2-chloro-N-{3-[2,2,2-trifluoro-1-(4-methoxyphenyl)ethoxy]-quinoxalin-2-yl}benzenesulfonamide]
6 | < 1 | Cc1ccc(C(Oc2nc3ccccc3nc2NS(=O)(=O)c2ccccc2Cl)C(F)(F)F)cn1 (stereo not drawn) [Compound 41, 2-chloro-N-{3-[2,2,2-trifluoro-1-(6-methylpyridin-3-yl)-ethoxy]quinoxalin-2-yl}benzenesulfonamide]
7 | < 1 | N#Cc1ccc(C(Oc2nc3ccccc3nc2NS(=O)(=O)c2ccccc2Cl)C(F)(F)F)cc1 (stereo not drawn) [Compound 42, 2-chloro-N-{3-[2,2,2-trifluoro-1-(4-cyanophenyl)ethoxy]-quinoxalin-2-yl}benzenesulfonamide]
8 | < 1 | N#Cc1ccc(C(Oc2nc3ccccc3nc2NS(=O)(=O)c2ccccc2Cl)C(F)(F)F)cn1 (stereo not drawn) [Compound 54, 2-chloro-N-{3-[2,2,2-trifluoro-1-(6-cyanopyridin-3-yl)-ethoxy]quinoxalin-2-yl}benzenesulfonamide]
9 | < 1 | COCOc1ccc(C(Oc2nc3ccccc3nc2NS(=O)(=O)c2ccccc2Cl)C(F)(F)F)cc1 (stereo not drawn) [Compound 56, 2-chloro-N-{3-[2,2,2-trifluoro-1-(4-methoxymethoxyphenyl)-ethoxy]quinoxalin-2-yl}benzenesulfonamide]
10 | < 1 | CN(C)C(=O)c1ccc(C(Oc2nc3ccccc3nc2NS(=O)(=O)c2ccccc2Cl)C(F)(F)F)cc1 (stereo not drawn) [Compound 63, 2-chloro-N-{3-[2,2,2-trifluoro-1-(4-dimethylcarbamoyl-phenyl)ethoxy]quinoxalin-2-yl}benzenesulfonamide]
11 | < 1 | COc1ccc(C(Oc2nc3ccccc3nc2NS(=O)(=O)c2ccccc2Cl)C(F)(F)F)cn1 (stereo not drawn) [Compound 64, 2-chloro-N-{3-[2,2,2-trifluoro-1-(6-methoxypyridin-3-yl)-ethoxy]quinoxalin-2-yl}benzenesulfonamide]
12 | < 1 | CC(C)(C#N)C(Oc1nc2ccccc2nc1NS(=O)(=O)c1ccccc1Cl)c1cccnc1 (stereo not drawn) [Compound 67, 2-chloro-N-{3-[2-cyano-2-methyl-1-(pyridin-3-yl)propoxy]-quinoxalin-2-yl}benzenesulfonamide]
13 | < 1 | Cc1ccc(C(Oc2nc3ccccc3nc2NS(=O)(=O)c2c(C)noc2C)C(F)(F)F)cn1 (stereo not drawn) [Compound 70, 3,5-dimethyl-N-{3-[2,2,2-trifluoro-1-(6-methylpyridin-3-yl)ethoxy]quinoxalin-2-yl}isoxazole-4-sulfonamide]
14 | < 1 | O=S(=O)(Nc1nc2ccccc2nc1OC(c1cccnc1)C1(F)CCOCC1)c1ccccc1Cl (stereo not drawn) [Compound 78, 2-chloro-N-{3-[4-fluorotetrahydropyran-4-yl(pyridin-3-yl)-methoxy]quinoxalin-2-yl}benzenesulfonamide]

Second part, the compound before the results:

Row | SMILES | IC50 [µM]
15 | CCC(Oc1nc2ccccc2nc1NS(=O)(=O)c1cccc(Cl)c1Cl)c1cccnc1 (stereo not drawn) [Compound 31, 2,3-dichloro-N-{3-[1-(pyridin-3-yl)propoxy]quinoxalin-2-yl}benzenesulfonamide] | < 1
16 | CC(C)C(Oc1nc2ccccc2nc1NS(=O)(=O)c1cccc(Cl)c1Cl)c1cccnc1 (stereo not drawn) [Compound 34, 2,3-dichloro-N-{3-[2-methyl-1-(pyridin-3-yl)propoxy]-quinoxalin-2-yl}benzenesulfonamide] | < 1
17 | O=S(=O)(Nc1nc2ccccc2nc1OC(c1ccc(C(F)(F)F)cc1)C(F)(F)F)c1cccc(Cl)c1Cl (stereo not drawn) [Compound 36, 2,3-dichloro-N-{3-[2,2,2-trifluoro-1-(4-trifluoromethyl-phenyl)ethoxy]quinoxalin-2-yl}benzenesulfonamide] | < 1
18 | COC(=O)C(Oc1nc2ccccc2nc1NS(=O)(=O)c1cccc(Cl)c1Cl)c1ccc(C(F)(F)F)cc1 (stereo not drawn) [Compound 43, 2,3-dichloro-N-{3-{methoxycarbonyl[4-(trifluoromethyl)-phenyl]methoxy}quinoxalin-2-yl}benzenesulfonamide] | < 1
19 | O=S(=O)(Nc1nc2ccccc2nc1OC(c1ccccc1)C(F)(F)F)c1ccccc1Cl (stereo not drawn) [Compound 44, 2-chloro-N-[3-(2,2,2-trifluoro-1-phenylethoxy)quinoxalin-2-yl]benzenesulfonamide] | < 1
20 | O=S(=O)(Nc1nc2ccccc2nc1OC(c1cccnc1)C(F)(F)C(F)(F)F)c1cccc(Cl)c1Cl (stereo not drawn) [Compound 46, 2,3-dichloro-N-{3-[3,3,3,2,2-pentafluoro-1-(pyridin-3-yl)-propoxy]quinoxalin-2-yl}benzenesulfonamide] | < 1
21 | O=S(=O)(Nc1nc2ccccc2nc1OC(c1ccccn1)C(F)(F)F)c1ccccc1Cl (stereo not drawn) [Compound 48, 2-chloro-N-{3-[2,2,2-trifluoro-1-(pyridin-2-yl)ethoxy]-quinoxalin-2-yl}benzenesulfonamide] | < 1
22 | O=S(=O)(Nc1nc2ccccc2nc1OC(c1ccncc1)C(F)(F)F)c1ccccc1Cl (stereo not drawn) [Compound 49, 2-chloro-N-{3-[2,2,2-trifluoro-1-(pyridin-4-yl)ethoxy]quinoxalin-2-yl}benzenesulfonamide] | < 1
23 | O=S(=O)(Nc1nc2ccccc2nc1OC(c1ccc(Cl)cc1)C(F)(F)F)c1ccccc1Cl (stereo not drawn) [Compound 53, 2-chloro-N-{3-[2,2,2-trifluoro-1-(4-chlorophenyl)ethoxy]-quinoxalin-2-yl}benzenesulfonamide] | < 1
24 | O=Cc1ccc(C(Oc2nc3ccccc3nc2NS(=O)(=O)c2ccccc2Cl)C(F)(F)F)cc1 (stereo not drawn) [Compound 58, 2-chloro-N-{3-[2,2,2-trifluoro-1-(4-formylphenyl)ethoxy]-quinoxalin-2-yl}benzenesulfonamide] | < 1
25 | O=S(=O)(Nc1nc2ccccc2nc1OC(c1ccc(F)cc1)C(F)(F)F)c1ccccc1Cl (stereo not drawn) [Compound 59, 2-chloro-N-{3-[2,2,2-trifluoro-1-(4-fluorophenyl)ethoxy]-quinoxalin-2-yl}benzenesulfonamide] | < 1
26 | O=S(=O)(Nc1nc2ccccc2nc1OC(c1ccc(CO)cc1)C(F)(F)F)c1ccccc1Cl (stereo not drawn) [Compound 60, 2-chloro-N-{3-[2,2,2-trifluoro-1-(4-hydroxymethylphenyl)-ethoxy]quinoxalin-2-yl}benzenesulfonamide] | < 1
27 | CN(C)Cc1ccc(C(Oc2nc3ccccc3nc2NS(=O)(=O)c2ccccc2Cl)C(F)(F)F)cc1 (stereo not drawn) [Compound 62, 2-chloro-N-{3-[2,2,2-trifluoro-1-(4-dimethylaminomethyl-phenyl)ethoxy]quinoxalin-2-yl}benzenesulfonamide] | < 1
28 | Cc1ccc(C(Oc2nc3ccccc3nc2NS(=O)(=O)c2c(C)nn(C)c2Cl)C(F)(F)F)cn1 (stereo not drawn) [Compound 69, 5-chloro-1,3-dimethyl-N-{3-[2,2,2-trifluoro-1-(6-methylpyridin-3-yl)ethoxy]quinoxalin-2-yl}-1H-pyrazole-4-sulfonamide] | < 1
29 | COc1cncc(C(Oc2nc3ccccc3nc2NS(=O)(=O)c2ccccc2Cl)C(F)(F)F)c1 (stereo not drawn) [Compound 71, 2-chloro-N-{3-[2,2,2-trifluoro-1-(5-methoxypyridin-3-yl)-ethoxy]quinoxalin-2-yl}benzenesulfonamide] | < 1
30 | O=S(=O)(Nc1nc2ccccc2nc1OC(c1cccnc1)C1CCOCC1)c1ccccc1Cl (stereo not drawn) [Compound 73, 2-chloro-N-{3-[tetrahydropyran-4-yl(pyridin-3-yl)methoxy]-quinoxalin-2-yl}benzenesulfonamide] | < 1
